Patent publication US20050276857A1, “Hydrogels formed by non-covalent linkages” (University of Washington, priority 2002, published 2005)
Where two headings read alike, the source gives them in different places.

Tests used:
[1] = Comparison of D- and L-amino acids for forming hydrogels with PVA; format: physicochemical; set-up: key: {square root} = Gel formation when amino acid was dissolved in water; + = Gel formation when amino acid was dissolved in 1 M NaHCO3; − = No gel formation regardless of solvent for amino acid; *= HCl derivative of amino acid; settings: 1 ml of 8% PVA; for Gel formation, D: D-amino acid; for Gel formation, L: L-amino acid
Protocol: In these experiments, the ability of D-amino acids to gel PVA was compared directly to the gelling observed using L-amino acids. The concentrations of amino acids used were the same for both the L- and D-forms. All D- and L-amino acids were obtained from Aldrich. Typically, 100 mg of amino acid was dissolved in the minimum amount of water or 1M NaHCO3 (200-600 microliter) necessary to dissolve it. […] For each amino acid/PVA combination, 1 ml of 8% PVA was used (80 mg PVA) and the amount of amino acid was varied. 100 mg of each of amino acids was added unless listed below, with the following exceptions: L-Gln 20 mg; D-Ile 50 mg; L-Phe 20 mg and 40 mg; L-Pro 50 mg and 100 mg; L-Ser 30 mg and 100 mg; L-Thr 30 mg; D-Trp 10 mg and 30 mg; L-Trp 8 mg; L-Tyr 10 mg; D-Tyr 10 mg; L-Val 30 mg.

[2] = for amount necessary to cause precipitation of 1 ml 8% PVA: 1.8 mmol of available OH groups
Protocol: Succinic acid, ethylene diamine, and glycine were each dissolved in water at a typical ratio of 100 mg in 1 ml water.
Aliquots of 100 microliter of each solution were added to PVA to reach final concentrations of either ˜0.5 mmol (low concentration) or ˜1 mmol (high concentration) per 1 ml 8% PVA solution (1.8 mmol of available OH groups in PVA).

| Gel formation, D [1] | Gel formation, L [1] | SMILES | also measured |
| --- | --- | --- | --- |
| − |  | C[C@@H](N)C(=O)O [D-Ala] |  |
| −* |  | Cl.NC(N)=NCCC[C@@H](N)C(=O)O [D-Arg] |  |
| − |  | NC(=O)C[C@@H](N)C(=O)O [D-Asn] |  |
| − |  | N[C@H](CC(=O)O)C(=O)O [D-Asp] |  |
| − |  | NC(=O)CC[C@@H](N)C(=O)O [D-Gln] |  |
| − |  | N[C@H](CCC(=O)O)C(=O)O [D-Glu] |  |
| − |  | N[C@H](Cc1c[nH]cn1)C(=O)O [D-His] |  |
| + |  | CC[C@@H](C)[C@@H](N)C(=O)O [D-Ile] |  |
| + |  | CC(C)C[C@@H](N)C(=O)O [D-Leu] |  |
| {square root} |  | NCCCC[C@@H](N)C(=O)O [D-Lys] |  |
| + |  | CSCC[C@@H](N)C(=O)O [D-Met] |  |
| + |  | CCCC[C@@H](N)C(=O)O [D-Nle] |  |
| + |  | N[C@H](Cc1ccccc1)C(=O)O [D-Phe] |  |
| {square root} |  | O=C(O)[C@H]1CCCN1 [D-Pro] |  |
| {square root} |  | N[C@H](CO)C(=O)O [D-Ser] |  |
| + |  | C[C@H](O)[C@@H](N)C(=O)O [D-Thr] |  |
| + |  | N[C@H](Cc1c[nH]c2ccccc12)C(=O)O [D-Trp] |  |
| + |  | N[C@H](Cc1ccc(O)cc1)C(=O)O [D-Tyr] |  |
| + |  | CC(C)[C@@H](N)C(=O)O [D-Val] |  |
|  |  | NCCN [Ethylene Diamine, ethylene diamine] | Gel formation ([2]; pH 4): −; gelling over time ([2]; pH 4.4): no gelling over time; initial gelling ([2]; pH 4.4): no immediate gelling; Gel formation ([2]; pH 7): −; gelling over time ([2]; pH 7.2): no additional gelling; initial gelling ([2]; pH 7.2): little immediate gelling; Gel formation ([2]; pH 10): ++; initial gelling ([2]; pH 10.0): immediate gelling; gelling over time ([2]; pH 10.0, first 24 hours): additional gelling; initial gelling ([2]; pH 12.7): immediate gelling; gelling over time ([2]; pH 12.7, first 24 hours): additional gelling; Gel formation ([2]; pH 13.1): +++ |
|  | {square root} | NCC(=O)O [Glycine, glycine] | dissolution of gel in water ([2]; gel formed at pH 7, cured for 1 hour in its solution before placing in water): did not dissolve; Gel formation ([2]; pH 4): −; initial gelling ([2]; pH 4): little gel formation; gelling over time ([2]; pH 4, within the first 24 hours): additional gel formation; Gel formation ([2]; pH 7): +++; gelling at higher concentration ([2]; pH 7): immediate gel formation; gelling over time ([2]; pH 7): More gelling; initial gelling ([2]; pH 7): substantial gelling; amount necessary to cause precipitation of 1 ml 8% PVA ([2]; pH 7): 2.6 mmol; initial gelling ([2]; pH 9.9): much gelling; gelling over time ([2]; pH 9.9, within 24 hours): Considerable additional gelling; Gel formation ([2]; pH 10): ++ |

| Gel formation, D [1] | Gel formation, L [1] | SMILES | also measured |
| --- | --- | --- | --- |
|  | + | C[C@H](N)C(=O)O [L-Ala] |  |
|  | {square root} | N=C(N)NCCC[C@H](N)C(=O)O [L-Arg] |  |
|  | + | NC(=O)C[C@H](N)C(=O)O [L-Asn] |  |
|  | − | N[C@@H](CC(=O)O)C(=O)O [L-Asp] |  |
|  | + | N[C@@H](CS)C(=O)O [L-Cys] |  |
|  | + | NC(=O)CC[C@H](N)C(=O)O [L-Gln] |  |
|  | − | N[C@@H](CCC(=O)O)C(=O)O [L-Glu] |  |
|  | {square root} | N[C@@H](Cc1c[nH]cn1)C(=O)O [L-His] |  |
|  | − | O=C(O)[C@@H]1C[C@@H](O)CN1 [L-Hyp] |  |
|  | − | CC[C@H](C)[C@H](N)C(=O)O [L-Ile] |  |
|  | − | CC(C)C[C@H](N)C(=O)O [L-Leu] |  |
|  | {square root} | NCCCC[C@H](N)C(=O)O [L-Lys] |  |
|  | − | CSCC[C@H](N)C(=O)O [L-Met] |  |
|  | + | N[C@@H](Cc1ccccc1)C(=O)O [L-Phe] |  |
|  | {square root} | O=C(O)[C@@H]1CCCN1 [L-Pro] |  |
|  | + | N[C@@H](CO)C(=O)O [L-Ser] |  |
|  | + | C[C@@H](O)[C@H](N)C(=O)O [L-Thr] |  |
|  | {square root} | N[C@@H](Cc1c[nH]c2ccccc12)C(=O)O [L-Trp] |  |
|  | + | N[C@@H](Cc1ccc(O)cc1)C(=O)O [L-Tyr] |  |
|  | + | CC(C)[C@H](N)C(=O)O [L-Val] |  |
|  |  | O=C(O)CCC(=O)O [Succinic Acid, succinic acid] | dissolution of gel in water or in 1M HCl ([2]; gel formed at pH 7.0, higher concentration): did not dissolve; dissolution of gel in water or in 1M HCl ([2]; gel formed at pH 9.7, higher concentration): did not dissolve; Gel formation ([2]; pH 2.1): −; gelling over time ([2]; pH 2.1): No additional gelling; initial gelling ([2]; pH 2.1): very slight gelling; Gel formation ([2]; pH 4): −; Gel formation ([2]; pH 7): +++; gelling at higher concentration ([2]; pH 7.0): PVA precipitates out immediately; gelling over time ([2]; pH 7.0): A little more gelling; initial gelling ([2]; pH 7.0, small amounts added): some initial gelling; amount necessary to cause precipitation of 1 ml 8% PVA ([2]; pH 7): 0.85 mmol; gelling at higher concentration ([2]; pH 9.7): PVA precipitates out immediately; gelling over time ([2]; pH 9.7): Additional gelling; initial gelling ([2]; pH 9.7, small amounts added): some initial gelling; Gel formation ([2]; pH 10): +++; amount necessary to cause precipitation of 1 ml 8% PVA ([2]; pH 10): 0.73 mmol |
